Measurements: patent US20140336130A1 (PHIGENIX, INC., priority 2011, published 2014)
Entries after “also recorded” stand apart in the source; their conditions may differ.

What was measured:
Format in all cases: cell-based, human
phospho-STAT3 = assay: Western blot of phospho-STAT3; details: DU145; vs untreated control
Procedure: (§1) Western blot analysis was performed as described in Example 2. […] After washing, the membranes were incubated with anti-rabbit antibody conjugated to horseradish peroxidase (HRP) (dilution 1:5000; Sigma), and signal detection was visualized using chemilluminescence reagents (Pierce) on an Alpha Innotech Fluorchem 8900. As a control, blots were stripped and re-probed with mouse anti-β-actin primary antibody (1:5000; Sigma-Aldrich) and HRP— conjugated anti-mouse secondary antibody (1:5000; Sigma-Aldrich), and signal detection was again visualized.\

PAX2 protein = assay: Western blot analysis of PAX2 protein; details: DU145, Los 5 μM, U0126 25 μM, PD98059 20 μM, AICAR 250 μM, vs untreated control
Procedure: Briefly, cells were harvested by trypsinization and washed twice with PBS. Lysis buffer was prepared according to the manufacturer's instructions (Sigma), and was then added to the cells. Following a 15 minute incubation period at 4° C. on an orbital shaker, cell lysate were then collected and centrifuged for 10 minutes at 12000×g to pellet cellular debris. The protein-containing supernatant were then collected and quantitated. Next, 25 μg protein extract was loaded onto an 8-16% gradient SDS-PAGE (Novex). Following electrophoresis, proteins were transferred to PVDF membranes, and then blocked with 5% nonfat dry milk in TTBS (0.05% Tween 20 and 100 mM Tris-Cl) for 1 hour. Blots were then probed with rabbit anti-PAX2 primary antibody (Zymed, San Francisco, Calif.) at a 1:2000 dilution. After washing, the membranes were incubated with anti-rabbit antibody conjugated to horseradish peroxidase (HRP) (dilution 1:5000; Sigma), and signal detection was visualized using chemilluminescence reagents (Pierce) on an Alpha Innotech Fluorchem 8900. As a control, blots were stripped and reprobed with mouse anti-β-actin primary antibody (1:5000; Sigma-Aldrich) and HRP— conjugated anti-mouse secondary antibody (1:5000; Sigma-Aldrich) and signal detection was again visualized.
(§2) Western blot analysis was performed as described in Example 2. Blots were then probed with primary antibody (anti-PAX2, -phospho-PAX2, -JNK, -phospho-JNK, -ERK1/2, or -phospho-ERK1/2) (Zymed, San Francisco, Calif.) at 1:1000-2000 dilutions. After washing, the membranes were incubated with anti-rabbit antibody conjugated to horseradish peroxidase (HRP) (dilution 1:5000; Sigma), and signal detection was visualized using chemilluminescence reagents (Pierce) on an Alpha Innotech Fluorchem 8900. As a control, blots were stripped and re-probed with mouse anti-β-actin primary antibody (1:5000; Sigma-Aldrich) and HRP— conjugated anti-mouse secondary antibody (1:5000; Sigma-Aldrich), and signal detection was again visualized.\
Western blot analysis was performed as described in Example 2.

phospho-PAX2 = assay: Western blot of phospho-PAX2; details: DU145
Procedure: as §1

PAX2 expression = PAX2 expression after AngII or pathway blockers; details: for increase in PAX2 expression relative to untreated hPrEC cells: 10 μM AngII; for PAX2 expression reduced by, compared to untreated control: Los 5 μM; for PAX2 expression, fold increase: PD123319 5 μM
DEFB1 = assay: QRT-PCR of DEFB1 (hBD-1) expression; details: for decrease in DEFB1 expression relative to untreated hPrEC cells: 10 μM AngII
Procedure: Briefly, total RNA was isolated using the SV Total RNA Isolation System (Promega, Madison, Wis.) from approximately 1×10^6 cells harvested by trypsinizing. Cells were lysed and total RNA was isolated by centrifugation through spin columns. For cells collected by LCM, total RNA was isolated using the PicoPure RNA Isolation Kit (Arcturus Biosciences, Mt. View, Calif.) following the manufacturer's protocol. Total RNA (0.5 μg per reaction) from both sources was reverse transcribed into cDNA utilizing random primers (Promega). AMV Reverse Transcriptase II enzyme (500 units per reaction; Promega) was used for first strand synthesis and Tfl DNA Polymerase for second strand synthesis (500 units per reaction; Promega) as per the manufacturer's protocol. In each case, 50 pg of cDNA was used per ensuing PCR reaction. Two-step QRT-PCR was performed on cDNA generated using the MultiScribe Reverse Transcripatase from the TaqMan Reverse Transcription System and the SYBR® Green PCR Master Mix (Applied Biosystems).
Forty cycles of PCR were performed under standard conditions using an annealing temperature of 56° C. In addition, β-actin (Table 2) was amplified as a housekeeping gene to normalize the initial content of total cDNA. […]
Quantitative real-time RT-PCR was performed as described in Example 1 to verify changes in gene expression following PAX2 knockdown in PC3 and DU145 prostate cancer cell lines and the hPrEC normal prostate epithelial cells. […] Quantification was determined by the cycle number where exponential amplification began (threshold value) and averaged from the values obtained from the triplicate repeats. […] Relative expression was calculated as the ratio between each genes and GAPDH. […]
QRT-PCR was performed as previously described (Gibson et al., 2007). […] Gene expression in benign prostate tissue samples was calculated as the expression ratio compared to β-actin. Levels of hBD-1 expression in malignant prostate tissue, hPREC prostate primary culture, and prostate cancer cell lines before and after induction were calculated relative to the average level of hBD-1 expression in hPrEC cells. […]

DU145 = assay: Thymidine incorporation, DU145
Procedure: Proliferation of cells was determined by [3H] thymidine ribotide ([3H] TdR) incorporation into DNA. 0.5×10^6 cells/well of suspension DU145 cells were plated in their appropriate media. Cells were incubated for 72 h with or without the presence of AngII at the indicated concentrations. Cells were exposed to 37 kBq/ml [methyl-3H] thymidine in the same medium for 6 h. The adherent cells were fixed by 5% trichloroacetic acid and lysed in SDS/NaOH lysis buffer overnight. Radioactivity was measured by Beckman LS3801 liquid scintillation counter (Canada). Suspension cell cultures were harvested by cell harvester (Packard instrument Co., Meriden, Conn.), and radioactivity was measured by 1450 microbeta liquid scintillation counter (PerkinElmer Life Sciences).

phospho-JNK = assay: Western blot of phospho-JNK; details: DU145
Procedure: as §1

ERK = assay: Western blot of ERK protein; details: DU145; Los
Procedure: as §2

phospho-ERK 1/2 = assay: Western blot of phospho-ERK1/2; details: DU145, Los
Procedure: as §2

[1] = DU145, U0126 25 μM, PD98059 20 μM

Q: NC(=O)c1ncn([C@@H]2O[C@H](CO)[C@@H](O)[C@H]2O)c1N [AICAR, 5-Aminoimidazole-4-carboxamide-1-β-4-ribofuranoside] was tested. Which phospho-STAT3 protein levels (phospho-STAT3) did it give?
A: suppressed; also recorded: suppress phospho-STAT3 protein levels

Q: What about the PAX2 protein levels (PAX2 protein) of the same molecule?
A: suppression of PAX2 expression; also recorded: suppress PAX2 protein levels

Q: What about the phospho-PAX2 protein levels (phospho-PAX2) of the same molecule?
A: suppression; also recorded: suppress phospho-PAX2 protein expression levels

Q: COc1cccc(-c2cc(=O)c3ccccc3o2)c1N [PD98059] was tested. Which PAX2 expression (PAX2 expression; [1]) did it give?
A: decreased PAX2

Q: And the phospho-STAT3 protein levels (phospho-STAT3)?
A: reduced phospho-STAT3 protein levels; also recorded: suppress phospho-STAT3 protein levels

Q: And the PAX2 protein levels (PAX2 protein)?
A: suppress PAX2 protein levels

Q: And the phospho-PAX2 protein levels (phospho-PAX2)?
A: significant decrease or suppression; also recorded: suppress phospho-PAX2 protein expression levels

Q: “Angiotensin II (DRVYIHPF; Angiotensin-2; UniProt P01019 25-32, looked up) [AngII]” was tested. Which “decrease in DEFB1 expression relative to untreated hPrEC cells” value (DEFB1; 72 hours) did it give?
A: 35%

Q: What about the “decrease in DEFB1 expression relative to untreated hPrEC cells” value (DEFB1; 96 hours) of the same molecule?
A: 50%

Q: What about the DEFB1 expression levels (DEFB1; hPrEC, AngII (FIG. 25 legend)) of the same molecule?
A: decreases DEFB1 expression levels

Q: What about the PAX2 expression (PAX2 expression; DU145, AngII treatment over 30 min to 48 hour) of the same molecule?
A: progressively increased over time

Q: And the “increase in PAX2 expression relative to untreated hPrEC cells” value (PAX2 expression; hPrEC, 72 hours)?
A: 66%

Q: What about the “increase in PAX2 expression relative to untreated hPrEC cells” value (PAX2 expression; hPrEC, 96 hours) of the same molecule?
A: 79%

Q: And the PAX2 expression levels (PAX2 expression; hPrEC, AngII (FIG. 25 legend))?
A: increases PAX2 expression levels

Q: And the “PAX2 expression as % of PAX2 levels in PC3 cells” value (PAX2 expression; hPrEC, AngII, 72 hours)?
A: 77%

Q: And the “PAX2 expression as % of PAX2 expression in PC3 cells” value (PAX2 expression; hPrEC, AngII, 96 hours)?
A: 89%

Q: What about the proliferation rate (DU145; AngII, 72 h) of the same molecule?
A: two- to three-fold increase; also recorded: increases DU145 cell proliferation

Q: With CCCCc1nc(Cl)c(CO)n1Cc1ccc(-c2ccccc2-c2nn[nH]n2)cc1 [Los, Losartan] as the molecule, how does the “PAX2 expression reduced by, compared to untreated control” value (PAX2 expression; DU145, 48 hours) read?
A: 37%

Q: And the “PAX2 expression reduced by, compared to untreated control” value (PAX2 expression; DU145, 72 hours)?
A: 50%

Q: And the “effect of AngII on PAX2 expression” value (PAX2 expression; DU145, Los (FIG. 21 legend))?
A: blocks the effect of Angiotensin II

Q: And the “proliferation rate decreased by” value (DU145; Los)?
A: 50%

Q: What about the “effect of AngII on proliferation” value (DU145; pre-treating with Los for 30 min) of the same molecule?
A: suppressed the effect of AngII on proliferation

Q: And the phospho-STAT3 protein levels (phospho-STAT3)?
A: reduced phospho-STAT3 protein levels; also recorded: suppress phospho-STAT3 protein levels

Q: What about the phospho-JNK protein levels (phospho-JNK) of the same molecule?
A: did not decrease; also recorded: failed to decrease phospho-JNK protein levels

Q: And the ERK protein levels (ERK)?
A: no effect

Q: And the phospho-ERK protein level (phospho-ERK 1/2)?
A: reduced the amount of phospho-ERK

Q: And the phospho-ERK protein level (phospho-ERK 1/2; listed as Losartan)?
A: suppresses phospho-ERK 1/2

Q: What about the PAX2 protein levels (PAX2 protein) of the same molecule?
A: significant reduction of PAX2 expression

Q: What about the PAX2 protein levels (PAX2 protein; listed as Losartan) of the same molecule?
A: suppress PAX2 protein levels

Q: What about the phospho-PAX2 protein levels (phospho-PAX2) of the same molecule?
A: significant decrease or suppression; also recorded: suppress phospho-PAX2 protein expression levels

Q: Which results are given for N#CC(=C(/N)Sc1ccccc1N)/C(C#N)=C(\N)Sc1ccccc1N [U0126]?
A: PAX2 expression (PAX2 expression; [1]): significant reduction of PAX2 expression; phospho-STAT3 protein levels (phospho-STAT3): reduced phospho-STAT3 protein levels; also recorded: suppress phospho-STAT3 protein levels; phospho-JNK protein levels (phospho-JNK): did not decrease; also recorded: failed to decrease phospho-JNK protein levels; PAX2 protein levels (PAX2 protein): suppress PAX2 protein levels; phospho-PAX2 protein levels (phospho-PAX2): significant decrease or suppression; also recorded: suppress phospho-PAX2 protein expression levels

Q: For Cc1cc(Cn2cnc3c2C[C@@H](C(=O)O)N(C(=O)C(c2ccccc2)c2ccccc2)C3)ccc1N(C)C [PD123319], which “PAX2 expression, fold increase” value (PAX2 expression; DU145, 48 hours) is on record?
A: 7 fold

Q: What about the “PAX2 expression, fold increase” value (PAX2 expression; DU145, 96 hours) of the same molecule?
A: 8 fold
